The text below walks through data of patent US20250171452A1 (Viscient Bio, Inc., priority 2022, published 2025).

The target in one experiment is IDO2 (Homo sapiens (Human), UniProt Q6ZQW0). Nature of the experiment: Cellular IDO2 assay, doxycycline and 5-methoxy-L-tryptophan medium, colorimetric. Format: cell-based.
Experiment [1] has as its target Indoleamine 2,3-dioxygenase 1 (IDO1) (Homo sapiens (Human), UniProt P14902). Kind of experiment: Cellular IDO1 assay: kynurenine production in IFN-γ-stimulated HeLa cells, colorimetric.
[2] abbreviates: cellular level, 72 h incubation, signal at 480 nm.

Like-named read-outs stand apart in the source and are kept apart here.

Indoleamine 2,3-dioxygenase 1 (IDO1), sequence (P14902 whole entry): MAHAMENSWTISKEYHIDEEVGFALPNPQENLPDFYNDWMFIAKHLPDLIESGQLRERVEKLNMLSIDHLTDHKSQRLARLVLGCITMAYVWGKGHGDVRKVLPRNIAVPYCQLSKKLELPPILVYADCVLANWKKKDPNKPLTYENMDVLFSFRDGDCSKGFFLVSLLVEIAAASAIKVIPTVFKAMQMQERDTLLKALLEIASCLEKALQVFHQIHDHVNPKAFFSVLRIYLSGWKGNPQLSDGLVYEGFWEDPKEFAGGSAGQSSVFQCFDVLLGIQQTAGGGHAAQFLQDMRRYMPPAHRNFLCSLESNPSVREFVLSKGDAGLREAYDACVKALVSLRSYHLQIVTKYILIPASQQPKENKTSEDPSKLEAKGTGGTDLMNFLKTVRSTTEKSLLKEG
IDO2, sequence (Q6ZQW0 whole entry, species assumed): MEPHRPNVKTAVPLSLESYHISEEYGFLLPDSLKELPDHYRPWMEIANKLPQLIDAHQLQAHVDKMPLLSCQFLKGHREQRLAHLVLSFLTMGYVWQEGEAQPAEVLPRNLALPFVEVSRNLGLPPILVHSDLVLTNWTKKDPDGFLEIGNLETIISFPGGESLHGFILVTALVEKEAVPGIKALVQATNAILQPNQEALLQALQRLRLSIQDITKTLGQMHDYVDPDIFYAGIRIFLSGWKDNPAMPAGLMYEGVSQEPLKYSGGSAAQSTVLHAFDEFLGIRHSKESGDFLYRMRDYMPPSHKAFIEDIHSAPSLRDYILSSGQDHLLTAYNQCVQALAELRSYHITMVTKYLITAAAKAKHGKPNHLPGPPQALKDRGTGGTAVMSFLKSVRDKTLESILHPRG

Consider `CS(=O)(=O)c1ccc2c(c1)C(=O)c1nc3cc(F)ccc3c(=O)n1-2` [Compound 14, 3-Fluoro-8-(methylsulfonyl)indolo[2,1-b]quinazoline-6,12-dione], for which the figures for the IC50 (at IDO2 (setting [2]); in experiment [1]) were under 50 nM and 50 to 500 nM, respectively.

For the molecule `O=[N+]([O-])c1ccc2c(c1)C(O)C1Nc3cc(F)ccc3CN21` (centres unmarked) [Compound 21, 3-Fluoro-8-nitro-5H,5aH,6H,12H-indolo[2,1-b]quinazolin-6-ol], the IC50 (at IDO2 (setting [2]); in experiment [1]) was under 50 nM each time.

In the case of `CC(=O)Nc1ccc2c(c1)C(=O)c1nc3cc(Cl)ccc3c(=O)n1-2` [Compound 7, N-(3-Chloro-6,12-dioxo-6,12-dihydroindolo[2,1-b]quinazolin-8-yl)acetamide], the IC50 (at IDO2 (setting [2]); in experiment [1]) was 50 to 500 nM in each case.

As to `O=C1c2cc(C(=O)N3CCNCC3)ccc2-n2c1nc1cc(Cl)cc(Cl)c1c2=O` [Compound 25, 1,3-dichloro-8-(piperazine-1-carbonyl)indolo[2,1-b]quinazoline-6,12-dione], the IC50 (against IDO2 (setting [2]); in experiment [1]) was 50 to 500 nM in each case.

As to `Cc1c(F)ccc2c(=O)n3c(nc12)C(=O)c1cc([N+](=O)[O-])ccc1-3` [Compound 30, 3-Fluoro-4-methyl-8-nitroindolo[2,1-b]quinazoline-6,12-dione], the IC50 (in general, the concentration that inhibits the measured activity by half) against IDO2 (setting [2]) is under 50 nM; in experiment [1], 50 to 500 nM.

For the molecule `O=C1c2cc([N+](=O)[O-])ccc2-n2c1nc1c(Br)cc(Cl)cc1c2=O` [Compound 47, 4-Bromo-2-chloro-8-nitroindolo[2,1-b]quinazoline-6,12-dione], the values for the IC50 (against IDO2 (setting [2]); in experiment [1]) were 50 to 500 nM and over 500 nM, respectively.

In the case of `O=C1c2cc([N+](=O)[O-])ccc2-n2c1nc1cnc(O)cc1c2=O` [Compound 51, 3-Hydroxy-9-nitropyrido[3′,4′:4,5]pyrimido[1,2-a]indole-5,11-dione], the IC50 against IDO2 (setting [2]) was 50 to 500 nM; in experiment [1], over 500 nM.

As to `O=C1c2cc(S(=O)(=O)Cc3ccccc3)ccc2-n2c1nc1cc(F)ccc1c2=O` [Compound 33, 8-(Benzylsulfonyl)-3-fluoroindolo[2,1-b]quinazoline-6,12-dione], the IC50 (at IDO2 (setting [2]); in experiment [1]) was under 50 nM in each case.

`Cc1cc(F)cc2c(=O)n3c(nc12)C(=O)c1cc([N+](=O)[O-])ccc1-3` [Compound 49, 2-Fluoro-4-methyl-8-nitroindolo[2,1-b]quinazoline-6,12-dione]: the IC50 against IDO2 (setting [2]) is under 50 nM; in experiment [1] it was 50 to 500 nM.

Regarding `O=c1c2c(Cl)cccc2[nH]c2cc3cc([N+](=O)[O-])ccc3n12` [Compound 39, 1-Chloro-8-nitroindolo[2,1-b]quinazolin-12(5H)-one], the values for the IC50 (against IDO2 (setting [2]); in experiment [1]) were under 50 nM and 50 to 500 nM, respectively.

In the case of `CC(C)(C)OC(=O)N1CCN(C(=O)c2ccc3c(c2)C(=O)c2nc4cc(Cl)cc(Cl)c4c(=O)n2-3)CC1` [Compound 26, tert-Butyl 4-(1,3-dichloro-6,12-dioxo-6,12-dihydroindolo[2,1-b]quinazoline-8-carbonyl)piperazine-1-carboxylate], the IC50 is 50 to 500 nM on IDO2 (setting [2]) and over 500 nM in experiment [1].

Consider `O=C1c2cc([N+](=O)[O-])ccc2-n2c1nc1cccc(F)c1c2=O` [Compound 37, 1-Fluoro-8-nitroindolo[2,1-b]quinazoline-6,12-dione], for which the IC50 (against IDO2; in experiment [1]) was under 50 nM in each case.

Consider `COC(=O)c1ccc2c(c1)C(=O)c1nc3cc(Cl)ccc3c(=O)n1-2` [Compound 6, Methyl 3-chloro-6,12-dioxo-6,12-dihydroindolo[2,1-b]quinazoline-8-carboxylate], for which the IC50 (against IDO2 (setting [2]); in experiment [1]) was 50 to 500 nM throughout.

On to `O=C1c2cc(F)ccc2-n2c1nc1c(Br)cccc1c2=O` [Compound 44, 4-Bromo-8-fluoroindolo[2,1-b]quinazoline-6,12-dione], for which the IC50 on IDO2 (setting [2]) is under 50 nM; in experiment [1] it was 50 to 500 nM.

Regarding `CN(C)C(=O)c1ccc2c(c1)C(=O)c1nc3cc(Cl)cc(Cl)c3c(=O)n1-2` [Compound 24, 1,3-Dichloro-N,N-dimethyl-6,12-dioxo-6,12-dihydroindolo[2,1-b]quinazoline-8-carboxamide], the IC50 (at IDO2 (setting [2]); in experiment [1]) was 50 to 500 nM throughout.

As for `O=C1c2cc([N+](=O)[O-])ccc2-n2c1nc1c(Cl)cccc1c2=O` [Compound 36, 4-Chloro-8-nitroindolo[2,1-b]quinazoline-6,12-dione], the IC50 on IDO2 (setting [2]) was under 50 nM; in experiment [1], 50 to 500 nM.
